In patent publication EP4467137A1, “TREATMENT OF FRONTOTEMPORAL DEMENTIA OR FRONTOTEMPORAL LOBAR DEMENTIA” (Universidad Autónoma de Madrid, priority 2023, dated 2024):

Key:
[1] = tested on: HEK-293 FRET biosensor containing tau repeating domains; assay: Tau seeding assay in HEK-293 tau FRET biosensor cells; assay type: cell-based; conditions: Tg4510 mouse brain homogenate as aggregant stimulus; increasing concentrations
Description: • Figure 1. Compound 1 reduces the inflammatory response against LPS in vitro. (A) Nitric oxide (NO) production in BV2 cells detected by DAF 24 h after LPS exposure and normalized by cell viability measured by MTT (n = 9). (B) qRT-PCR of TNFα (n = 9) in BV2 cells after 24 h LPS exposure. Sulforaphane (Sfn) was used as a positive control. […] Compound 1 decreases the inflammatory process 4 and 24 hours after LPS administration in vivo. Compound 1 (20 mg·kg^-1) daily was injected i.p. four days before the i.p. LPS (0.5 mg·kg^-1) administration. […] Compound 1 ameliorates the resolution of the inflammatory process triggered by LPS. […] (B) Locomotion activity measured by line crossings of an imaginary grid. […] Compound 1 reduced tau seeding in HEK-293 tau FRET biosensor measured by flow cytometer (C). […] Representative images of hyperphosphorylated tau intensity measured by AT8 and AT180 antibodies in three different regions of the hippocampus (GD, CA3 and CA1) (n = 11-12). (B) Quantification AT8 intensity, normalized to CA3 intensity of Sham animals. (C) Quantification of AT180 intensity, normalized to CA3 intensity of Sham animals (n = 9-12). […] Quantification of sarkosyl soluble (n = 10) (C) and insoluble species (D) using AT8 antibody (n = 10). Quantification of sarkosyl soluble (n = 10) (E) and insoluble species (F) using AT180 antibody (n = 10). […]

[2] = Oxygen Radical Absorbance Capacity Assay (ORAC); assay type: physicochemical; conditions: ORAC > 1.0 is a better ROS scavenger than trolox
Description: The Oxygen Radical Absorbance Capacity Assay (ORAC) was performed as described [Herrera-Arozamena, Clara et al. "Resveratrol-Based MTDLs to Stimulate Defensive and Regenerative Pathways and Block Early Events in Neurodegenerative Cascades." Journal of medicinal chemistry vol. 65,6 (2022): 4727-4751. doi:10.1021/acs.jmedchem.1c01883].

COc1ccc2c(c1)CC(c1c[nH]c3ccc(OC)cc13)N2 (centres unmarked) [Compound 1, 5-Methoxy-3-(5-methoxyindolin-2-yl)-1H-indole]
tau seeding (integrated FRET density) [1]: reduce tau seeding ability following a concentration dependent effect
ORAC (trolox equiv.) [2]: 2.3 ± 0.3 trolox equiv.
